One data set can be described thus: Human hepatic Clint. The format is in vitro ADME.
Data set [1] is described as follows: CACO-2 A > B permeability. The data set is classed as in vitro ADME. Particulars: human. The text has this:
The compounds of the present invention are novel β-D-galactopyranose compounds that unexpectedly have shown high affinity for galectin-3 and are considered novel potent drug candidates. In addition, it is seen that with these compounds the advantage is that the pyrazole moiety A^1 results in an improved uptake over CACO-2 cells predicting high oral bioavailability after oral administration and this is supported by disclosed ADME data herein. Further compared to compounds where A^1 is a triazole moiety this improvement is significant.
For orientation: Caco-2 cells form a polarised layer with tight junctions and transporters.

For another data set, the target named is Gal-3 (Homo sapiens, UniProt P17931). In words: Fluorescence anisotropy assay, inhibition of galectin / fluorescein tagged saccharide probe interaction. The data set is classed as binding. Here is the method:
The affinity of Example 1-59 for galectins were determined by a fluorescence anisotropy assay where the compound was used as an inhibitor of the interaction between galectin and a fluorescein tagged saccharide probe as described Sörme, P., Kahl-Knutsson, B., Huflejt, M., Nilsson, U. J., and Leffler H. (2004) Fluorescence polarization as an analytical tool to evaluate galectin-ligand interactions. Anal. Biochem. 334: 36-47, (Sarme et al., 2004)

Chain of Gal-3 (P17931 whole entry, species assumed): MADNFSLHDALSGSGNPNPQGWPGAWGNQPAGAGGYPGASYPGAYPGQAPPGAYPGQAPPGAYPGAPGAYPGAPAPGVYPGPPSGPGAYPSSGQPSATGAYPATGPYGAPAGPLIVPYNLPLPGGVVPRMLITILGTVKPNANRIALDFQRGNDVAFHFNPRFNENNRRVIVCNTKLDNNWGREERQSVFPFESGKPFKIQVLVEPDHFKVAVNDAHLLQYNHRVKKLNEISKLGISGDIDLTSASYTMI

The CLint scaled is the rate of metabolic loss divided by the concentration. A word on the Papp A→B: it is how fast a substance crosses the layer from the apical side. What is called Kd is the concentration at which binding is half-saturated. Higher therefore signals weaker binding. `Cc1nc([C@@H]2OC(CO)[C@H](O)C(n3cc(-c4cc(F)c(F)c(F)c4)cn3)C2O)n(-c2cc(Cl)cnc2C2CC2)n1` (stereo in doubt) [Example 13, 5-Chloro-3-{5-{3-deoxy-3-[4-(3,4,5-trifluorophenyl)-1H-1,2-pyrazol-1-yl]-β-D-galactopyranosyl}-3-methyl-1H-1,2,4-triazol-1-yl}-2-cyclopropylpyridine] returned a CLint scaled in the data set “Human hepatic Clint” of 0.2 mL/min/kg. The compound also displayed an apical-to-basolateral permeability (Papp A→B) in data set [1] of 10 ×10⁻⁶ cm/s. The compound also yielded a Kd on Gal-3 of 0.015 µM.
As to `Cc1nc([C@@H]2OC(CO)[C@H](O)C(n3cc(-c4cc(F)c(Cl)c(F)c4)cn3)C2O)n(-c2cc(Cl)ccc2C(F)(F)F)n1` (stereo in doubt) [Example 5, 1-{5-{3-[4-(4-Chloro-3,5-difluorophenyl)-1H-1,2-pyrazol-1-yl]-3-deoxy-β-D-galactopyranosyl}-3-methyl-1H-1,2,4-triazol-1-yl}-5-chloro-2-(trifluoromethyl)benzene], in the data set “Human hepatic Clint”, the intrinsic clearance (CLint scaled) was 0.4 mL/min/kg. For the same compound, the Papp A→B in data set [1] worked out at 18 ×10⁻⁶ cm/s. Further, on Gal-3, the dissociation constant (Kd) is 0.006 µM.
Regarding `Cc1nc([C@@H]2OC(CO)[C@H](O)C(n3cc(-c4cc(F)c(Cl)c(F)c4)cn3)C2O)n(-c2ccc3nc(C)sc3c2)n1` (stereo in doubt) [Example 9, 6-{5-{3-[4-(4-Chloro-3,5-difluorophenyl)-1H-1,2-pyrazol-1-yl]-3-deoxy-β-D-galactopyranosyl}-3-methyl-1H-1,2,4-triazol-1-yl}-2-methylbenzothiazole], the intrinsic clearance (CLint scaled) in “Human hepatic Clint” is 0.6 mL/min/kg. This compound returned an apical-to-basolateral permeability (Papp A→B) in data set [1] of 20 ×10⁻⁶ cm/s. The same compound displayed an equilibrium dissociation constant (Kd) on Gal-3 of 0.012 µM.
Turning to `Cc1nc([C@@H]2OC(CO)[C@H](O)C(n3cc(-c4cc(F)c(F)c(F)c4)cn3)C2O)n(-c2ccc3nc(C)sc3c2)n1` (stereo in doubt) [Example 8, 6-{5-{3-Deoxy-3-[4-(3,4,5-trifluorophenyl)-1H-1,2-pyrazol-1-yl]-β-D-galactopyranosyl}-3-methyl-1H-1,2,4-triazol-1-yl}-2-methylbenzothiazole], the CLint scaled in the data set “Human hepatic Clint” was found to be 0.3 mL/min/kg. The same compound registered a Papp A→B in data set [1] of 17 ×10⁻⁶ cm/s. Besides, binding at Gal-3 was put at a Kd of 0.022 µM.
For the compound `Cc1nc([C@@H]2OC(CO)[C@H](O)C(n3cc(-c4cc(F)c(F)c(F)c4)cn3)C2O)n(-c2ccc3nc(C(F)(F)F)sc3c2)n1` (stereo in doubt) [Example 36, 6-{5-{3-Deoxy-3-[4-(3,4,5-trifluorophenyl)-1H-1,2-pyrazol-1-yl]-β-D-galactopyranosyl}-3-methyl-1H-1,2,4-triazol-1-yl}-2-(trifluoromethyl)benzothiazole], the equilibrium dissociation constant (Kd) at Gal-3 worked out at 0.23 µM.
For `Cc1nc([C@@H]2OC(CO)[C@H](O)C(n3cc(-c4cc(F)c(F)c(F)c4)cn3)C2O)n(-c2ncc(Cl)s2)n1` (stereo in doubt) [Example 33, 5-Chloro-2-{5-{3-deoxy-3-[4-(3,4,5-trifluorophenyl)-1H-1,2-pyrazol-1-yl]-β-D-galactopyranosyl}-3-methyl-1H-1,2,4-triazol-1-yl}-thiazole], the Kd on Gal-3 came to 0.52 µM.
Regarding `Cc1nc([C@@H]2OC(CO)[C@H](O)C(n3cc(-c4cccc(F)n4)cn3)C2O)n(-c2cc(Cl)ccc2C(F)(F)F)n1` (stereo in doubt) [Example 6, 5-Chloro-1-{5-{3-deoxy-3-[4-(6-fluoropyridin-2-yl)-1H-1,2-pyrazol-1-yl]-β-D-galactopyranosyl}-3-methyl-1H-1,2,4-triazol-1-yl}-2-(trifluoromethyl)benzene], the dissociation constant (Kd) on Gal-3 was determined as 0.13 µM.
On the same count and under the same terms, then `Cc1nc([C@@H]2OC(CO)[C@H](O)C(n3cc(-c4cc(F)c(Cl)c(F)c4)c(C#N)n3)C2O)n(-c2cc(Cl)ccc2C(F)(F)F)n1` (stereo in doubt) [Example 31, 1-{5-{3-[4-(4-Chloro-3,5-difluorophenyl)-3-cyano-1H-1,2-pyrazol-1-yl]-3-deoxy-β-D-galactopyranosyl}-3-methyl-1H-1,2,4-triazol-1-yl}-5-chloro-2-(trifluoromethyl)benzene], with 0.012 µM.
At Gal-3, `Cc1nc([C@@H]2OC(CO)[C@H](O)C(n3cc(-c4ccc(C(F)(F)F)cc4)cn3)C2O)n(-c2cc(Cl)ccc2C(F)(F)F)n1` (stereo in doubt) [Example 56, 5-Chloro-1-{5-{3-deoxy-3-{4-[4-(trifluoromethyl)phenyl]-1H-1,2-pyrazol-1-yl}-β-D-galactopyranosyl}-3-methyl-1H-1,2,4-triazol-1-yl}-2-(trifluoromethyl)benzene] returned a Kd of 0.11 µM. This Kd lies about 9.2-fold higher than the previous one.
As to `Cc1nc([C@@H]2OC(CO)[C@H](O)C(n3cc(-c4cc(F)c(F)c(F)c4)cn3)C2O)n(-c2cc(Cl)c3nc(C)sc3c2)n1` (stereo in doubt) [Example 41, 4-Chloro-6-{5-{3-deoxy-3-[4-(3,4,5-trifluorophenyl)-1H-1,2-pyrazol-1-yl]-β-D-galactopyranosyl}-3-methyl-1H-1,2,4-triazol-1-yl}-2-methylbenzothiazole], the Kd on Gal-3 was found to be 0.01 µM.
Still for that read-out and setting: then `Cc1nc([C@@H]2OC(CO)[C@H](O)C(n3cc(-c4cc(F)c(C)cn4)cn3)C2O)n(-c2cc(Cl)ccc2C(F)(F)F)n1` (stereo in doubt) [Example 15, 5-Chloro-1-{5-{3-deoxy-3-[4-(4-fluoro-5-methylpyridin-2-yl)-1H-1,2-pyrazol-1-yl]-β-D-galactopyranosyl}-3-methyl-1H-1,2,4-triazol-1-yl}-2-(trifluoromethyl)benzene], with 0.013 µM; and `Cc1nc([C@@H]2OC(CO)[C@H](O)C(n3cc(-c4cc(F)c(F)c(F)c4)c(-c4ccc(F)cc4)n3)C2O)n(-c2cc(Cl)ccc2C(F)(F)F)n1` (stereo in doubt) [Example 55, 5-Chloro-1-{5-{3-deoxy-3-[4-(3,4,5-trifluorophenyl)-3-(4-fluorophenyl)-1H-1,2-pyrazol-1-yl]-β-D-galactopyranosyl}-3-methyl-1H-1,2,4-triazol-1-yl}-2-(trifluoromethyl)benzene], with 0.1 µM; and `Cc1nc([C@@H]2OC(CO)[C@H](O)C(n3cc(-c4cc(F)c(F)c(F)c4)cn3)C2O)n(-c2cc(Br)ccc2C(F)(F)F)n1` (stereo in doubt) [Example 24, 5-Bromo-1-{5-{3-deoxy-3-[4-(3,4,5-trifluorophenyl)-1H-1,2-pyrazol-1-yl]-β-D-galactopyranosyl}-3-methyl-1H-1,2,4-triazol-1-yl}-2-(trifluoromethyl)benzene], with 0.002 µM.
The compound `Cc1nc([C@@H]2OC(CO)[C@H](O)C(n3cc(-c4cc(F)c(Cl)c(F)c4)cn3)C2O)n(-c2cc(Cl)cnc2C2CC2)n1` (stereo in doubt) [Example 1, 3-{5-{3-[4-(4-Chloro-3,5-difluorophenyl)-1H-1,2-pyrazol-1-yl]-3-deoxy-β-D-galactopyranosyl}-3-methyl-1H-1,2,4-triazol-1-yl}-5-chloro-2-cyclopropylpyridine] displayed an intrinsic metabolic clearance (CLint scaled) in “Human hepatic Clint” of 1.3 mL/min/kg. Besides, the apparent permeability from apical to basolateral (Papp A→B) in data set [1] worked out at 18 ×10⁻⁶ cm/s. Besides, the Kd at Gal-3 came to 0.032 µM.
At Gal-3, `Cc1nc([C@@H]2OC(CO)[C@H](O)C(n3cc(-c4cc(F)c(F)c(F)c4)c(-c4ccccc4C)n3)C2O)n(-c2cc(Cl)ccc2C(F)(F)F)n1` (stereo in doubt) [Example 53, 5-Chloro-1-{5-{3-deoxy-3-[4-(3,4,5-trifluorophenyl)-3-(2-methylphenyl)-1H-1,2-pyrazol-1-yl]-β-D-galactopyranosyl}-3-methyl-1H-1,2,4-triazol-1-yl}-2-(trifluoromethyl)benzene] registered a dissociation constant Kd of 0.092 µM.
Consider `Cc1nnc([C@@H]2OC(CO)[C@H](O)C(n3cc(-c4cc(F)c(Cl)c(F)c4)cn3)C2O)n1-c1cc(Cl)ccc1C(F)(F)F` (single isomer, unassigned) [Example 11, 1-{3-{3-[4-(4-Chloro-3,5-difluorophenyl)-1H-1,2-pyrazol-1-yl]-3-deoxy-β-D-galactopyranosyl}-5-methyl-4H-1,2,4-triazol-4-yl}-5-chloro-2-(trifluoromethyl)benzene], for which the dissociation constant Kd on Gal-3 stood at 0.007 µM.

These data come from patent publication US20240309038A1, “NOVEL GALACTOSIDE INHIBITOR OF GALECTINS” (GALECTO BIOTECH AB, priority 2020, published 2024).
